Experimental data as given in patent publication US12421243B2, “Pharmaceutically effective compounds inhibiting selectively the myosin 2 isoforms” (PRINTNET KERESKEDELMI ÉS SZOLGÁLTATÓ KFT., priority 2018, dated 2025).

How the values were obtained:
[1] = target: recombinant Dictyostelium miozin (Dictyostelium) (Dictyostelium discoideum, UniProt P08799); assay: actomyosin steady state ATPase measurement, Dictyostelium myosin; format: biochemical; conditions: for IC50: concentration required for semi-maximal inhibition of ATPase, read-out: IC50 (μM) Dicty; for % inhibition. complete Dicty: maximum value of inhibition of ATPase activity; for inhibition at 5 µM: read-out: % inhibition at 5 μM (or 10 μM if racemate) Dicty; for inhibition at 50 µM: read-out: % inhibition at 50 μM (or 100 μM if racemate) Dicty
From the text: (§1) […]; (ii) the concentration required for semi-maximal inhibition.

[2] = target: recombinant human non-muscle myosin 2 NM2A (Homo sapiens, UniProt P35579); assay: actomyosin steady state ATPase measurement, NM2A; format: biochemical; conditions: for IC50: concentration required for semi-maximal inhibition of ATPase; for % inhibition. complete NM2A: maximum value of inhibition of ATPase activity; for inhibition at 5 µM: read-out: % inhibition at 5 μM (or 10 μM if racemate) NM2A, 5 μM (10 μM if racemate); for inhibition at 5 µM / inhibition at 50 µM: ATPase activity; for inhibition at 50 µM: read-out: % inhibition at 50 μM (or 100 μM if racemate) NM2A, 50 μM (100 μM if racemate)
From the text: as §1

[3] = target: recombinant human non-muscle myosin 2 NM2C (Homo sapiens, UniProt Q7Z406); assay: actomyosin steady state ATPase measurement, NM2C; format: biochemical; conditions: for IC50: concentration required for semi-maximal inhibition of ATPase; for % inhibition. complete NM2C: maximum value of inhibition of ATPase activity; for inhibition at 5 µM: read-out: % inhibition at 5 μM (or 10 μM if racemate) NM2C, 5 μM (10 μM if racemate); for inhibition at 5 µM / inhibition at 50 µM: ATPase activity; for inhibition at 50 µM: read-out: % inhibition at 50 μM (or 100 μM if racemate) NM2C, 50 μM (100 μM if racemate)
From the text: as §1

[4] = target: T1, isolated porcine cardiac ventricular myocardium (cardiac) (Sus scrofa, UniProt P79293); assay: actomyosin steady state ATPase measurement, cardiac myosin; format: biochemical; conditions: for IC50: concentration required for semi-maximal inhibition of ATPase; for % inhibition. complete cardiac: maximum value of inhibition of ATPase activity; for inhibition at 5 µM: read-out: % inhibition at 5 μM (or 10 μM if racemate) cardiac, 5 μM (10 μM if racemate); for inhibition at 5 µM / inhibition at 50 µM: ATPase activity; for inhibition at 50 µM: read-out: % inhibition at 50 μM (or 100 μM if racemate) cardiac, 50 μM (100 μM if racemate)
T1 construct: isolated porcine cardiac ventricular myocardium (cardiac); from tissue; host or cells: porcine cardiac ventricle
T1 sequence (P79293 whole entry): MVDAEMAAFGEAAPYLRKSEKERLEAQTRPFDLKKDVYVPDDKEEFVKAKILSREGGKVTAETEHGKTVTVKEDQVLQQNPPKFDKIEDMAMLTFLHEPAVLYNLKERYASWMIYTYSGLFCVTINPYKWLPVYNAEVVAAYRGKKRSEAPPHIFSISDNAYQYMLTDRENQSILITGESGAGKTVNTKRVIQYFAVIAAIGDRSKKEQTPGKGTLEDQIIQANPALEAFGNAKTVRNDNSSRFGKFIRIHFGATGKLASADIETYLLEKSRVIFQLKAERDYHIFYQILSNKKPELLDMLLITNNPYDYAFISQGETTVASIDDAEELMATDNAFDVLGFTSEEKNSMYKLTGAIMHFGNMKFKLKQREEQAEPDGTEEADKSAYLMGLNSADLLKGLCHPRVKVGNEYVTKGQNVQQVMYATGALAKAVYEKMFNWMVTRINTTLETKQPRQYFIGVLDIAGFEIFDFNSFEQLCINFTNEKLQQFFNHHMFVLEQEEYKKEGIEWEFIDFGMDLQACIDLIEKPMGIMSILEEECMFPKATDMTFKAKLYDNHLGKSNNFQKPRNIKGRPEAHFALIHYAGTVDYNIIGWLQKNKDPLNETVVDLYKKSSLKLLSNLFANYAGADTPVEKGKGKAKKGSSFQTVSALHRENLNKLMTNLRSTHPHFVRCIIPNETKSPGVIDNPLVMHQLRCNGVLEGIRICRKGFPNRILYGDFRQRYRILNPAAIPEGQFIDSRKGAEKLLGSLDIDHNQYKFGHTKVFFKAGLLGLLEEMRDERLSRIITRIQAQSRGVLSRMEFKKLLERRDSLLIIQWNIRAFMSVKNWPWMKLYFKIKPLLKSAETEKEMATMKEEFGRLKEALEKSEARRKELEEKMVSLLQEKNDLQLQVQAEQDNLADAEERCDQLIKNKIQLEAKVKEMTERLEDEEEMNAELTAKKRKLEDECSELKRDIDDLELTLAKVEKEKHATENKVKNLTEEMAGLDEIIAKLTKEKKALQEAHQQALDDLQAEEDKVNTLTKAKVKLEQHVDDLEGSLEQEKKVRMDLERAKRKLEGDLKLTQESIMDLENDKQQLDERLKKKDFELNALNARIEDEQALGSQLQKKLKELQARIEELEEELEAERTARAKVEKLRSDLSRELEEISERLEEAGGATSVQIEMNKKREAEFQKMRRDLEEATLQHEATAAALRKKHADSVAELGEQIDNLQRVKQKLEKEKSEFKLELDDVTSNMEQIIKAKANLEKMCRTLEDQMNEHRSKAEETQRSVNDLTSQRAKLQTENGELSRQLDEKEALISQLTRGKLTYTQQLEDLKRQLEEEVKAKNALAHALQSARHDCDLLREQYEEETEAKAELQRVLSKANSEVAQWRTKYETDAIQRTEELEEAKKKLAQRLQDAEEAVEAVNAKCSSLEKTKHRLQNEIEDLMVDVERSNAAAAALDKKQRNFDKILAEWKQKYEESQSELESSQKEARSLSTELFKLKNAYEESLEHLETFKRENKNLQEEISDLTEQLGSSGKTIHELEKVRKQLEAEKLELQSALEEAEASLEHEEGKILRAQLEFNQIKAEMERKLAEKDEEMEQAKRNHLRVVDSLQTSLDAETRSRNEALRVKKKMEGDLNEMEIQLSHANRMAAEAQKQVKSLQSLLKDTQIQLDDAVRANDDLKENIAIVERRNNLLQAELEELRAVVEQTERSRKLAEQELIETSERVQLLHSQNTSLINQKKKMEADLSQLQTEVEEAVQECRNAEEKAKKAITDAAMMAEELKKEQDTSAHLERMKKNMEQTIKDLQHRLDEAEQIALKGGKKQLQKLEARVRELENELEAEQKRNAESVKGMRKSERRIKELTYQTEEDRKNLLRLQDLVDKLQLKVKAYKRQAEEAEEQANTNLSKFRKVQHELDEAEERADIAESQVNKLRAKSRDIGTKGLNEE
From the text: as §1

[5] = tested on: isolated rabbit skeletal muscle myosin (skeletal); assay: actomyosin steady state ATPase measurement, skeletal muscle myosin; format: biochemical; conditions: for % inhibition at 5 μM (or 10 μM if racemate) Skeletal: 5 μM (10 μM if racemate); for % inhibition at 5 μM (or 10 μM if racemate) Skeletal / % inhibition at 50 μM (or 100 μM if racemate) Skeletal: ATPase activity; for % inhibition at 50 μM (or 100 μM if racemate) Skeletal: 50 μM (100 μM if racemate); for IC50: concentration required for semi-maximal inhibition of ATPase; for % inhibition. complete Skeletal: maximum value of inhibition of ATPase activity
From the text: as §1

[6] = target: isolated smooth muscle myosin (UniProt P10587); format: biochemical, chamois; conditions: concentration required for semi-maximal inhibition of ATPase
Chain of isolated smooth muscle myosin (P10587 whole entry): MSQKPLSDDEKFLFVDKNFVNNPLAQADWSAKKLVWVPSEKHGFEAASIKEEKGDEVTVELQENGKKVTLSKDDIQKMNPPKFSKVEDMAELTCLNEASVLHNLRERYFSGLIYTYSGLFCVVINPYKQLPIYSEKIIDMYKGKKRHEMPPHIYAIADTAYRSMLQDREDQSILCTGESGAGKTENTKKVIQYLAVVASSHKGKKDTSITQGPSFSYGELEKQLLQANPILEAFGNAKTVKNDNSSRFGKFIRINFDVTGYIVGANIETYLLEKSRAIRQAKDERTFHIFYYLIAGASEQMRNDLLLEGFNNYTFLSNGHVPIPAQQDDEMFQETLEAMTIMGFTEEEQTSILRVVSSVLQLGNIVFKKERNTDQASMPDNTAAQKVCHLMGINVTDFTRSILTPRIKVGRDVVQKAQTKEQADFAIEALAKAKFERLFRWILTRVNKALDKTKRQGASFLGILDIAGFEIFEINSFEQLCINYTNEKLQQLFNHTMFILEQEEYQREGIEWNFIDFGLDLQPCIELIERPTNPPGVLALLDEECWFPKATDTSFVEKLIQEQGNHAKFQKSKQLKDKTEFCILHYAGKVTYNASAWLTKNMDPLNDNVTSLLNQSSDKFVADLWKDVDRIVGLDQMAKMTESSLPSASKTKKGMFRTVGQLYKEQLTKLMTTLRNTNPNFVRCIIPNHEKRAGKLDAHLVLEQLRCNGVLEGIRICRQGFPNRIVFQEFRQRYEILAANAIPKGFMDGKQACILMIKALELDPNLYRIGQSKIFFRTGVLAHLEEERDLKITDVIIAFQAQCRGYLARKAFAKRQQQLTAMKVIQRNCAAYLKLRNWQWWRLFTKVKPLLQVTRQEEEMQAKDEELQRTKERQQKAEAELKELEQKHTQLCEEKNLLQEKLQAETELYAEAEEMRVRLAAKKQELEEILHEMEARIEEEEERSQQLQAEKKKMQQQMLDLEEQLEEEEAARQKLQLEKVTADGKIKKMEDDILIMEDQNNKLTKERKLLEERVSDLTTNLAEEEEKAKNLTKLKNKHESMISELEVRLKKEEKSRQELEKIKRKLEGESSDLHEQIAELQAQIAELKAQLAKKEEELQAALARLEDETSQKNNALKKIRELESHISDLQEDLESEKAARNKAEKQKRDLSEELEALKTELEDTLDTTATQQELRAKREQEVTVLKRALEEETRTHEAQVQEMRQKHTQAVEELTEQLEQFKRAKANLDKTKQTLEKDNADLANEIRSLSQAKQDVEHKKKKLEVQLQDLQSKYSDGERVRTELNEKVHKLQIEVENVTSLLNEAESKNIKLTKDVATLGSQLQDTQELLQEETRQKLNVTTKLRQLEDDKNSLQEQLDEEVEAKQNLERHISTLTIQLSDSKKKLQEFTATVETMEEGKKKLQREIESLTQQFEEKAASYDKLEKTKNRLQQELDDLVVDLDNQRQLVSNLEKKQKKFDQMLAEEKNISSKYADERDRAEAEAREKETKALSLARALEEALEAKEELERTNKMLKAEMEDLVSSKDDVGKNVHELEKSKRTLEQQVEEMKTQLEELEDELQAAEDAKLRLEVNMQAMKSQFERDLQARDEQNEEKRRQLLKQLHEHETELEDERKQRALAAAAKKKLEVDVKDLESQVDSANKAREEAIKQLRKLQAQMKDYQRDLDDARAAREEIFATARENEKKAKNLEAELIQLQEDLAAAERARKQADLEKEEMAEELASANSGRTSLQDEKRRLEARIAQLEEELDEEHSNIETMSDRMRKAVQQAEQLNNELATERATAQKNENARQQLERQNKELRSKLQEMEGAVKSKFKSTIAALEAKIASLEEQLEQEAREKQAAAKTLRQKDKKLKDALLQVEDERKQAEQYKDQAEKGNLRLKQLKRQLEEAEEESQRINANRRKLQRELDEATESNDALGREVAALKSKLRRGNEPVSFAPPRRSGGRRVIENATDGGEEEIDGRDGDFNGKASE
From the text: (ii) the concentration required for semi-maximal inhibition.

[7] = solubility in PBS in the presence of 1% DMSO; format: physicochemical; conditions: phosphate buffered saline with 1% DMSO, aqueous buffer, kinetic from dmso stock, PBS w/o Mg, Ca
[8] = target: isolated smooth muscle myosin (UniProt P10587); format: biochemical, chamois; conditions: for % inhibition at 5 μM (or 10 μM if racemate) Smooth: 5 μM (10 μM if racemate); for % inhibition at 5 μM (or 10 μM if racemate) Smooth / % inhibition at 50 μM (or 100 μM if racemate) Smooth: ATPase activity; for % inhibition at 50 μM (or 100 μM if racemate) Smooth: 50 μM (100 μM if racemate); for % inhibition. complete Smooth: maximum value of inhibition of ATPase activity
[9] = target: recombinant human non-muscle myosin 2 NM2B (Homo sapiens, UniProt P35580); assay: actomyosin steady state ATPase measurement, NM2B; format: biochemical
From the text: as §1

Structure (SMILES) | IC50 [1] | % inhibition. complete Dicty [1] | inhibition at 5 µM [1] | inhibition at 50 µM [1] | IC50 [2] | % inhibition. complete NM2A [2] | inhibition at 5 µM [2] | inhibition at 50 µM [2] | IC50 [3] | % inhibition. complete NM2C [3] | inhibition at 5 µM [3] | inhibition at 50 µM [3] | IC50 [4] | % inhibition. complete cardiac [4] | inhibition at 5 µM [4] | inhibition at 50 µM [4] | % inhibition at 5 μM (or 10 μM if racemate) Skeletal [5] | % inhibition at 50 μM (or 100 μM if racemate) Skeletal [5] | IC50 [5] | % inhibition. complete Skeletal [5] | also measured
COc1ccc(N2CC[C@@]3(O)C(=O)c4ccsc4N=C23)cc1 [Compound 211, (9S)-9-hydroxy-12-(4-methoxyphenyl)-4-thia-2,12-diazatricyclo[7.3.0.0^3,7]dodeca-1,3(7),5-trien-8-one] | 9.4 µM | 100% | 33% | 85% | 22 µM | 99% | 17% | 69% | 2 µM | 70% | 46% | 67% | 1.3 µM | 87% | 67% | 85% | 93% | 98% | 0.28 µM | 98% | IC50 [6]: 7 µM; solubility [7]: 510 µM; % inhibition at 5 μM (or 10 μM if racemate) Smooth [8]: 34%; % inhibition at 50 μM (or 100 μM if racemate) Smooth [8]: 74%; % inhibition. complete Smooth [8]: 85%
N#Cc1ccc(N2CC[C@@]3(O)C(=O)c4ccsc4N=C23)cc1 [Compound 213, (9S)-4-{9-Hydroxy-8-oxo-4-thia-2,12-diazatricyclo[7.3.0.0^3,7]dodeca-1,3(7),5-trien-12-yl}benzonitrile] | 3.5 µM | 87% | 50% | 81% | 23 µM | 74% | 13% | 51% | 8 µM | 63% | 22% | 54% | 1.8 µM | 87% | 61% | 84% | 89% | 98% | 0.58 µM | 99% | Inhibition (%) Dicty ([1]; maximum inhibition, compounds in IC50 range 1-11 μM): 87%; IC50 [6]: 18 µM; solubility [7]: 410 µM; % inhibition at 5 μM (or 10 μM if racemate) Smooth [8]: 16%; % inhibition at 50 μM (or 100 μM if racemate) Smooth [8]: 57%; % inhibition. complete Smooth [8]: 78%
O=C1c2ccsc2N=C2N(c3ccccc3)CCC12O (stereo not shown) [Compound 180, 9-Hydroxy-12-phenyl-4-thia-2,12-diazatricyclo[7.3.0.0^3,7]dodeca-1,3(7),5-trien-8-one] | 13.1 µM | 85% | 22% | 67% | 9.8 µM | 48% | 15% | 44% | 9.3 µM | 60% | 20% | 55% | 5.1 µM | 89% | 42% | 81% | 87% | 96% | 0.81 µM | 99% | Inhibition (%) NM2A ([2]; maximum inhibition, compounds in IC50 range 5-10 μM): 48%; IC50 ([9]; concentration required for semi-maximal inhibition of ATPase): 18.7 µM; % inhibition. complete NM2B ([9]; maximum value of inhibition of ATPase activity): 60%; inhibition at 5 µM ([9]; read-out: % inhibition at 5 μM (or 10 μM if racemate) NM2B, 5 μM (10 μM if racemate), ATPase activity): 14%; inhibition at 50 µM ([9]; read-out: % inhibition at 50 μM (or 100 μM if racemate) NM2B, 50 μM (100 μM if racemate), ATPase activity): 44%; Inhibition (%) cardiac ([4]; maximum inhibition, compounds in IC50 range 3-6 μM): 89%; IC50 [6]: 14 µM; solubility [7]: 2400 µM; % inhibition at 5 μM (or 10 μM if racemate) Smooth [8]: 16%; % inhibition at 50 μM (or 100 μM if racemate) Smooth [8]: 38%; % inhibition. complete Smooth [8]: 58%
